The source of these data is US11555212B2, “Process for the production of sulfated phenolic compounds using modified Escerichia coli” (CysBio ApS, priority 2016, dated 2023).

One data set addresses T1, RsTAL (Cereibacter sphaeroides, UniProt Q3IWB0).
T1 construct: were optimized for E. coli and synthesized by GeneArt, amplified by PCR; expressed in transfected cells; host or cells: E. coli BL21(DE3), plasmid pCBJ215
Put plainly: Titers of pHCA and zosteric acid, E. coli co-expressing tyrosine ammonia-lyase and SULT1A1 rat. In kind it is cell-based, Rhodobacter sphaeroides. The conditions noted are these: E. coli BL21(DE3) with SULT1A1 rat and RsTAL; M9, 0.2% glucose, 2 mM tyrosine, 1 mM IPTG; overnight 37° C.; supernatant. On the procedure: (§1) The concentration of p-courmaric acid (pHCA) and zosteric acid in the supernatant was quantified by high performance liquid chromatography (HPLC) and compared to chemical standards. HPLC was done on a Thermo setup using a HS-F5 column and mobile phases: 5 mM ammonium formate pH 4.0 (A) and acetonitrile (B) at 1.5 mL min-1, using a gradient elution starting at 5% B. From 0.5 min after injection to 7 min, the fraction of B increased linearly from 5% to 60%, and between 9.5 min and 9.6 the fraction of B decreased back to 5%, and remaining there until 12 min. pHCA and zosteric acid were quantified by measuring absorbance at 277 nm.
The genes encoding the tyrosine ammonia-lyases RcTAL (from Rhodobacter capsulatus; SEQ ID NO: 50), RsTAL (from Rhodobacter sphaeroides; SEQ ID NO: 43) and FjTAL (from Flavobacterium johnsoniae; SEQ ID NO: 40) were cloned into expression vectors as follows. […]
Strains harboring recombinant plasmids were pre-cultured in 2×YT liquid medium with 100 μg mL^−1 ampicillin and 50 μg mL^−1 spectinomycin and incubated at 37° C. and 250 rpm overnight. […] The supernatants were then collected by centrifugation twice and applied to HPLC analysis as described in example 1, and the titers of p-coumaric acid (pHCA) and zosteric acid (ZA) were quantified using chemical standards and are presented in the table below.

For data set [1], the target named is T2, SULT1A1 Canis lupus familiaris (Canis lupus familiaris, UniProt Q29476).
T2 construct: 1, 3, 4, 5, and 6 were cloned amplified from liver tissue cDNA; expressed in transfected cells; host or cells: E. coli BL21(DE3)pLysS
Briefly: Percent conversion of substrates by E. coli expressing a sulfotransferase. To be noted: E. coli BL21(DE3)pLysS expressing SULT1A1 Canis lupus familiaris; M9; pHCA 100 μM, resveratrol 95 μM or kaempferol 87 μM; overnight 37° C. In kind it is cell-based. The procedure: as §1
(§2) Different sulfotransferases were examined for their substrate specificities against three substrates. We tested the sulfotransferases mentioned in example 1, as well as additional ones. The genes encoding these were cloned as described in example 1 using the primers shown in the table below from cDNA libraries of the respective organisms, except for the SULT1A1 from rat (Rattus norvegicus) codon-optimized for E. coli (described above). The resulting vectors were transformed into BL21(DE3)pLysS.
(§3) The resulting strains were grown in M9 medium containing either 100 μM pHCA, 95 μM resveratrol or 87 μM kaempferol. The cultures were grown overnight at 37° C., 300 rpm. The following day the supernatants were isolated and examined by HPLC as described in example 1.

The subject of another data set is SULT1A1 Equus caballus. The description is as above. To be noted: E. coli BL21(DE3)pLysS expressing SULT1A1 Equus caballus; M9; pHCA 100 μM, resveratrol 95 μM or kaempferol 87 μM; overnight 37° C. The class given is cell-based. On the procedure: as §1, §2, §3
In data set [2] the target is T3, SULT1A1 Rattus norvegicus (Rattus norvegicus, UniProt P17988).
T3 construct: 1, 3, 4, 5, and 6 were cloned amplified from liver tissue cDNA; expressed in transfected cells
The description is as above. The class given is cell-based. The conditions noted are these: M9, pHCA 100 μM, resveratrol 95 μM or kaempferol 87 μM, overnight 37° C. On the procedure:
as §1, §2, §3

In data set [3] the test system is SULT1A1 Sus scrofa domesticus. The data set is described as above. In kind it is cell-based. The conditions noted are these: E. coli BL21(DE3)pLysS expressing SULT1A1 Sus scrofa domesticus; M9; pHCA 100 μM, resveratrol 95 μM or kaempferol 87 μM; overnight 37° C. On the procedure:
as §1, §2, §3

For a further data set, the target named is T4, SULT1A1 human (Homo sapiens, UniProt P50225, V223M).
T4 construct: expressed in transfected cells; host or cells: E. coli BL21(DE3)pLysS
The description is as above. The class given is cell-based. The conditions noted are these: E. coli BL21(DE3)pLysS expressing SULT1A1 human; M9; pHCA 100 μM, resveratrol 95 μM or kaempferol 87 μM; overnight 37° C. On the procedure:
as §1, §2, §3

The test system of data set [4] is SULT1C1 Gallus gallus domesticus. Described as above. The class given is cell-based. The conditions noted are these: E. coli BL21(DE3)pLysS expressing SULT1C1 Gallus gallus domesticus; M9; pHCA 100 μM, resveratrol 95 μM or kaempferol 87 μM; overnight 37° C. The procedure: as §1, §2, §3
For data set [5], the system named is SULT1E1 Gallus gallus domesticus. The data set is described as above. The class given is cell-based. To be noted: E. coli BL21(DE3)pLysS expressing SULT1E1 Gallus gallus domesticus; M9; pHCA 100 μM, resveratrol 95 μM or kaempferol 87 μM; overnight 37° C. The procedure:
as §1, §2, §3

For the next data set, the system named is E. coli MG1655. Briefly: Toxicity of unsulfated or sulfated product: growth rates of E. coli. The conditions noted are these: M9 minimal media, 0.2% glucose, pH 7, 37° C.; pHCA 10-40 mM; zosteric acid 20 mM or 40 mM.

T3 sequence (P17988 whole entry): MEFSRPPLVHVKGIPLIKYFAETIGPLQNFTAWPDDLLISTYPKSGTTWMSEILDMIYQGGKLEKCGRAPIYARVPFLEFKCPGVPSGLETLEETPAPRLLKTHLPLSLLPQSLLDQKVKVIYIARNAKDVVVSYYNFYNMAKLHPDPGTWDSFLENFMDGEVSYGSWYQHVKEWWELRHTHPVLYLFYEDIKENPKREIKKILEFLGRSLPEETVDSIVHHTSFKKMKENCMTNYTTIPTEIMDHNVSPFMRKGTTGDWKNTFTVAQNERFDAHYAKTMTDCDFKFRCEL
T1 sequence (Q3IWB0 whole entry Q21E/A24S/I74V/S113A/S143M/R238G/D285G/G287S): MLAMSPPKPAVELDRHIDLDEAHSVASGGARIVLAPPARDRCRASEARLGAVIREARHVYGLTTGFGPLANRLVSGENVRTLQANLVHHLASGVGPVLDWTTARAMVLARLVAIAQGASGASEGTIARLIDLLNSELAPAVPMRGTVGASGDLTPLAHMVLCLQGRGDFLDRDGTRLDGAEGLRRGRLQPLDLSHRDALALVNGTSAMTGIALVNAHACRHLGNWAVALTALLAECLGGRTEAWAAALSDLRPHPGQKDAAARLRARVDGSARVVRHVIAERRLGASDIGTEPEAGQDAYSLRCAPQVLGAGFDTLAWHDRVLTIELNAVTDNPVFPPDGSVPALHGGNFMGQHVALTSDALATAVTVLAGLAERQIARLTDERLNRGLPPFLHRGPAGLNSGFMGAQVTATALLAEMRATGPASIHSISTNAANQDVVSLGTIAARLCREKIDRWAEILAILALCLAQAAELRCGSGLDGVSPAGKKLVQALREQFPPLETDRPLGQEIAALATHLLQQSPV
T4 sequence (P50225 whole entry V223M): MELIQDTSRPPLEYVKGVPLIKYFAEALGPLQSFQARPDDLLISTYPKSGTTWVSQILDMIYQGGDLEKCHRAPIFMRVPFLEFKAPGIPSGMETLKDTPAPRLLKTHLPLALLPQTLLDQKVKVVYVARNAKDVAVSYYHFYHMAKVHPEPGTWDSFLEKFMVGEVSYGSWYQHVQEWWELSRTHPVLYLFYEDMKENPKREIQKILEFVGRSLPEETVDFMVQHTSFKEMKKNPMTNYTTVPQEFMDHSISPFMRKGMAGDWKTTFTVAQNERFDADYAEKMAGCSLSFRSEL
T2 sequence (Q29476 whole entry): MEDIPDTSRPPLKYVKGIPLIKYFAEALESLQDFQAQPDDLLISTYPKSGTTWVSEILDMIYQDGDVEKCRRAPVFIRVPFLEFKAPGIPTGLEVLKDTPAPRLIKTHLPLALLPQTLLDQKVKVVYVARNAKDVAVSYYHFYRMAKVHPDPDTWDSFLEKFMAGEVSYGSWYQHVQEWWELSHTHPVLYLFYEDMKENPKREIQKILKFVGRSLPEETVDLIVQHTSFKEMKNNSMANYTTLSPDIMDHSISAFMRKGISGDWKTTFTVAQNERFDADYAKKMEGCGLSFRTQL
Procedure for E. coli MG1655: E. coli MG1655 was grown in chemically defined M9 minimal media with 0.2% glucose as a carbon source without further addition or with the additions of either 10 mM, 20 mM, 25 mM, 30 mM, 35 mM or 40 mM p-coumaric acid (pHCA), or with 20 mM or 40 mM of the sulfate ester of pHCA (zosteric acid). All media preparations had been adjusted to pH 7. Cells were grown at 37° C. with 250 rpm shaking in an orbital shaker. The growth rates were examined by following the optical density at 600 nm.

Take `O=C(O)/C=C/c1ccc(OS(=O)(=O)O)cc1` [Zosteric acid, zosteric acid]: at RsTAL, the “Titer of zosteric acid (ZA)” value was <1 µM.

As for `O=C(O)/C=C/c1ccc(O)cc1` [pHCA, p-coumaric acid], the “Titer of p-coumaric acid (pHCA)” value at RsTAL turned out to be 78 μM. The “Percent conversion of the substrate” value in data set [1] is listed as 34%; in the data set on SULT1A1 Equus caballus, 21%; in [2] (E. coli BL21(DE3)pLysS expressing SULT1A1 Rattus norvegicus (Codon-optimized for E. coli)), 73%; in [2] (E. coli BL21(DE3)pLysS expressing SULT1A1 Rattus norvegicus) it was 93%; in [3] it was 8%; at SULT1A1 human, 39%. Moreover, the entries for the “Percent conversion of the substrate” value in [4] and in data set [5] were 26% and 17%, respectively. Moreover, the “Toxicity to the cells (growth rates in exponential growth phase, OD 600 nm, FIG. 4)” value in the data set on E. coli MG1655 was “toxic to the cells”.
